According to PubChem BioAssay AID1963975 (Molecular Pharmacology Branch, DTP, NCI, 2024):
pIC50: −log10 of the molar value.

Tested on: 624824-186-R-J2-PDC multicell spheroids, viability
Test: Anticancer human tumor 624824-186-R-J2-PDC patient-derived colon adenocarcinoma cell line growth inhibition [PI3K]
Conditions: for pIC50: curve of first compound; for viability, T/C: stronger effect = lower value; active = viability on the fitted dose curve at most 10% of control; inactive = the rest
Excerpt: Combinatorial screen of targeted agents with the PI3K inhibitors inavolisib, alpelisib, duvelisib, and copanlisib in multi-cell type tumor spheroids
A high-throughput screen of multi-cell type tumor spheroids was designed to identify active combinations of targeted small molecules and PI3K pathway inhibitors. Complex spheroids include a stromal component modeled by human endothelial cells (HUVEC) and fibroblasts modeled by human mesenchymal stem cells (MSCs). The concentration ranges selected for each drug and investigational agent were based upon clinically achievable concentrations if the clinical Cmax of the agent was known.
Compounds. The drugs and investigational agents: inavolisib (NSC800729), alpelisib (NSC765974), duvelisib (NSC772469), copanlisib (NSC816437), ipatasertib (NSC767898), afuresertib (NSC778305), talazoparib (NSC767125), sapanisertib (NSC764658), selumetinib (NSC741078), tovorafenib (DAY101, NSC766906), vemurafenib (NSC761431), ravoxertinib (NSC781343), sotorasib (NSC818433), MRTX1133 (NSC 836407), abemaciclib (NSC 768073), palbociclib (NSC758247), venetoclax (NSC 766270), SY5609 (NSC837396), enzalutamide (NSC755605), and darolutamide (NSC825331), were obtained from the National Cancer Institute (NCI) Developmental Therapeutics Program Chemical Repository. The FDA-approved anticancer drug set is available from the NCI Developmental Therapeutics Program. […] The stock solutions were prepared in dimethyl sulfoxide (DMSO, Sigma-Aldrich, St. Louis, MO, cat. D2650) at 800-fold the tested concentration and stored at -70 degrees C prior to their use. All drugs and investigational agents were tested over a range starting from a high concentration at or near the clinical Cmax and decreasing in half-log increments. If the clinical Cmax for an agent had not been determined, the highest concentration tested was 10 microM.
Cell Culture. All cells were maintained in an incubator at 37 degrees C and 5% CO2 with 95% humidity. The PDC lines were cultured according to standard operating procedures established by the NCI PDMR (https://pdmr.cancer.gov/sops/default.htm). All PDCs were thawed and cultured in Matrigel-coated flasks prepared with a working solution of 1X Ham's F-12 nutrient mix, without supplementation (Invitrogen, Waltham, MA, cat. 11765054), 100 U/mL penicillin-streptomycin (Invitrogen, cat. 15140122), and 2.5% Matrigel (Corning Inc., Corning, NY, cat. 354248) for the first three passages. The 354836-022-R-J1-PDC, 475296-252-R-J1-PDC, and 997726-040-R-J2-PDC lines were cultured in 6A media, which includes advanced DMEM/F-12 (Thermo Fisher Scientific, cat. 12634028), 10 mM HEPES (Thermo Fisher Scientific, cat. 15630080), 1X GlutaMAX supplement (Thermo Fisher Scientific, cat. 35050061), 0.1 mg/mL primocin (InvivoGen, San Diego, CA, cat. ant-pm-2), 10% defined fetal bovine serum, heat inactivated (HyClone Laboratories Inc., Logan, UT, cat. SH30070.03HI), 50% L-WRN conditioned media (ATCC, cat. CRL-3276), 1.25 mM N-Acetyl-L-cysteine (Sigma-Aldrich, cat. A9165), 10 mM nicotinamide (Sigma-Aldrich, cat. N0636), 1X B-27 supplement (Thermo Fisher Scientific, cat. 17504044), 1X N-2 supplement (Thermo Fisher Scientific, cat. 17502048), and 10 microM Y-27632 dihydrochloride (Tocris Bioscience, Bristol, United Kingdom, cat. 1254). The 624824-186-R-J2-PDC line was cultured in 6C/Colon 1B media, which includes all 6A media components plus 50 ng/mL human EGF recombinant protein (Thermo Fisher Scientific, cat. PHG0311). […]

[1] = second compound 0.00316 µM, first compound 0.0316 µM
[2] = second compound 0.00316 µM, first compound 0.1 µM
[3] = second compound 0.00316 µM, first compound 0.316 µM
[4] = second compound 0.00316 µM, first compound 1 µM
[5] = second compound 0.00316 µM, first compound 3.16 µM
[6] = second compound 0.00316 µM, first compound 10 µM
[7] = second compound 0.01 µM, first compound 0.0316 µM
[8] = second compound 0.01 µM, first compound 0.1 µM
[9] = second compound 0.01 µM, first compound 0.316 µM
[10] = second compound 0.01 µM, first compound 1 µM
[11] = second compound 0.01 µM, first compound 3.16 µM
[12] = second compound 0.01 µM, first compound 10 µM
[13] = second compound 0.0316 µM, first compound 0.0316 µM
[14] = second compound 0.0316 µM, first compound 0.1 µM
[15] = second compound 0.0316 µM, first compound 0.316 µM
[16] = second compound 0.0316 µM, first compound 1 µM
[17] = second compound 0.0316 µM, first compound 3.16 µM
[18] = second compound 0.0316 µM, first compound 10 µM
[19] = second compound 0.1 µM, first compound 0.0316 µM
[20] = second compound 0.1 µM, first compound 0.1 µM
[21] = second compound 0.1 µM, first compound 0.316 µM
[22] = second compound 0.1 µM, first compound 1 µM
[23] = second compound 0.1 µM, first compound 3.16 µM
[24] = second compound 0.1 µM, first compound 10 µM
[25] = second compound 0.316 µM, first compound 0.0316 µM
[26] = second compound 0.316 µM, first compound 0.1 µM
[27] = second compound 0.316 µM, first compound 0.316 µM
[28] = second compound 0.316 µM, first compound 1 µM
[29] = second compound 0.316 µM, first compound 3.16 µM
[30] = second compound 0.316 µM, first compound 10 µM
[31] = second compound 1 µM, first compound 0.0316 µM
[32] = second compound 1 µM, first compound 0.1 µM
[33] = second compound 1 µM, first compound 0.316 µM
[34] = second compound 1 µM, first compound 1 µM
[35] = second compound 1 µM, first compound 3.16 µM
[36] = second compound 1 µM, first compound 10 µM
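Also: spheroids exposed to agents for 7 days before viability read.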
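For viability, T/C in this document: 100% = DMSO vehicle treated spheroids.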

CCCS(=O)(=O)Nc1ccc(F)c(C(=O)c2c[nH]c3ncc(-c4ccc(Cl)cc4)cc23)c1F + CC(Nc1ccc2c(c1)OCCn1cc(N3C(=O)OCC3C(F)F)nc1-2)C(N)=O
5.33: pIC50 (second compound 0.316 µM)
5.11: pIC50 (second compound 0.0316 µM)
5.21: pIC50 (second compound 0.1 µM)
5.00: pIC50 (second compound 0.00316 µM)
inactive: viability, T/C [1] 78.1% | viability, T/C [2] 112% | viability, T/C [3] 87.8% | viability, T/C [4] 119% | viability, T/C [5] 113% | viability, T/C [6] 50% | viability, T/C [7] 92.7% | viability, T/C [8] 89.7% | viability, T/C [9] 73.6% | viability, T/C [10] 82.7% | viability, T/C [11] 109% | viability, T/C [12] 43.5% | viability, T/C [13] 82.7% | viability, T/C [14] 88.3% | viability, T/C [15] 73.5% | viability, T/C [16] 89.1% | viability, T/C [17] 108% | viability, T/C [18] 39.7% | viability, T/C [19] 80% | viability, T/C [20] 89.8% | viability, T/C [21] 81.9% | viability, T/C [22] 72.3% | viability, T/C [23] 76.3% | viability, T/C [24] 32.7% | viability, T/C [25] 67.9% | viability, T/C [26] 78.5% | viability, T/C [27] 71.7% | viability, T/C [28] 68% | viability, T/C [29] 62.1% | viability, T/C [30] 26.8% | viability, T/C [31] 80.5% | viability, T/C [32] 68.6% | viability, T/C [33] 68.7% | viability, T/C [34] 53.2% | viability, T/C [35] 63.1% | viability, T/C [36] 23.8%
5.45: pIC50 (second compound 1 µM)
5.07: pIC50 (second compound 0.01 µM)

CNC(=O)c1ccc(N2C(=S)N(c3ccc(C#N)c(C(F)(F)F)c3)C(=O)C2(C)C)cc1F + CC(Nc1ccc2c(c1)OCCn1cc(N3C(=O)OCC3C(F)F)nc1-2)C(N)=O
inactive: viability, T/C [1] 90.2% | viability, T/C [2] 90.7% | viability, T/C [3] 107% | viability, T/C [4] 96.3% | viability, T/C [5] 134% | viability, T/C [6] 121% | viability, T/C [7] 88.3% | viability, T/C [8] 107% | viability, T/C [9] 88.5% | viability, T/C [10] 86.4% | viability, T/C [11] 124% | viability, T/C [12] 109% | viability, T/C [13] 75.5% | viability, T/C [14] 77.3% | viability, T/C [15] 89.5% | viability, T/C [16] 80.5% | viability, T/C [17] 102% | viability, T/C [18] 98.3% | viability, T/C [19] 72.3% | viability, T/C [20] 66% | viability, T/C [21] 84.8% | viability, T/C [22] 67.8% | viability, T/C [23] 78% | viability, T/C [24] 102% | viability, T/C [25] 78% | viability, T/C [26] 72.3% | viability, T/C [27] 88.5% | viability, T/C [28] 76.9% | viability, T/C [29] 104% | viability, T/C [30] 98.7% | viability, T/C [31] 69% | viability, T/C [32] 78% | viability, T/C [33] 89.3% | viability, T/C [34] 87.5% | viability, T/C [35] 95.2% | viability, T/C [36] 93.7%
< 5.00: pIC50 (second compound 0.00316 µM) | pIC50 (second compound 0.01 µM) | pIC50 (second compound 0.0316 µM) | pIC50 (second compound 0.1 µM) | pIC50 (second compound 0.316 µM) | pIC50 (second compound 1 µM)
